Legend:
[1] = test system: Human immunodeficiency virus 1; experiment: Antiviral activity against wild type HIV1 3B infected in human MT4 cells assessed as reduction of virus-induced cytopathic effect after 4 days by MTT assay; type: functional, organism-based; details: Human immunodeficiency virus 1, 3B, MT4, 96 h
[2] = test system: Human immunodeficiency virus 2; experiment: Antiviral activity against HIV2 ROD infected in human MT4 cells assessed as reduction of virus-induced cytopathic effect after 4 days by MTT assay; type: functional, organism-based; details: Human immunodeficiency virus 2, ISOLATE ROD, MT4, 96 h
[3] = Cytotoxicity against human MT4 cells assessed as reduction in cell viability after 4 days by MTT assay; type: cell-based
[4] = Selectivity index, ratio of CC50 for human MT4 cells to EC50 for wild type HIV1 3B; type: toxicity; details: read-out: Ratio CC50/EC50
[5] = target: Human immunodeficiency virus type 1 reverse transcriptase (Human immunodeficiency virus 1, UniProt Q72547); experiment: Inhibition of recombinant wild type HIV1 reverse transcriptase p66/p51 using poly (rA)/anoligo (dT)16 as template/primer assessed as inhibition of biotin-dUTP incorporation after 40 mins by Pico-Green staining based fluorescence assay
[6] = test system: Human immunodeficiency virus 1; experiment: Antiviral activity against HIV1 harboring reverse transcriptase L100I mutant infected in human MT4 cells assessed as reduction of virus-induced cytopathic effect after 4 days by MTT assay; type: functional, organism-based; details: Human immunodeficiency virus 1, MT4, 96 h
[7] = test system: Human immunodeficiency virus 1; experiment: Antiviral activity against HIV1 harboring reverse transcriptase K103N mutant infected in human MT4 cells assessed as reduction of virus-induced cytopathic effect after 4 days by MTT assay; type: functional, organism-based; details: Human immunodeficiency virus 1, MT4, 96 h
[8] = test system: Human immunodeficiency virus 1; experiment: Antiviral activity against HIV1 harboring reverse transcriptase Y181C mutant infected in human MT4 cells assessed as reduction of virus-induced cytopathic effect after 4 days by MTT assay; type: functional, organism-based; details: Human immunodeficiency virus 1, MT4, 96 h
[9] = test system: Human immunodeficiency virus 1; experiment: Antiviral activity against HIV1 harboring reverse transcriptase Y188L mutant infected in human MT4 cells assessed as reduction of virus-induced cytopathic effect after 4 days by MTT assay; type: functional, organism-based; details: Human immunodeficiency virus 1, MT4, 96 h
[10] = test system: Human immunodeficiency virus 1; experiment: Antiviral activity against HIV1 harboring reverse transcriptase E138K mutant infected in human MT4 cells assessed as reduction of virus-induced cytopathic effect after 4 days by MTT assay; type: functional, organism-based; details: Human immunodeficiency virus 1, MT4, 96 h
[11] = test system: Human immunodeficiency virus 1; experiment: Antiviral activity against HIV1 RES056 harboring reverse transcriptase K103 N/Y181C double mutant infected in human MT4 cells assessed as reduction of virus-induced cytopathic effect after 4 days by MTT assay; type: functional, organism-based; details: Human immunodeficiency virus 1, RES056, MT4, 96 h
[12] = test system: Human immunodeficiency virus 1; experiment: Antiviral activity against HIV1 harboring reverse transcriptase F227L/V106A double mutant infected in human MT4 cells assessed as reduction of virus-induced cytopathic effect after 4 days by MTT assay; type: functional, organism-based; details: Human immunodeficiency virus 1, MT4, 96 h
[13] = test system: Human immunodeficiency virus 1; experiment: Potency index, ratio of nevirapine EC50 to test compound EC50 for wild type HIV1 3B infected in human MT4 cells; type: functional

IC50 [5]	SMILES	EC50 [1]	EC50 [2]	CC50 at 96 h [3]	selectivity ratio [4]	EC50 [6]	EC50 [7]	EC50 [8]	EC50 [9]	EC50 [10]	EC50 [11]	EC50 [12]	Ratio EC50 [13]
20 nM	Cc1cc(-c2cccc(Cl)c2)cc(C)c1Nc1ccnc(Nc2ccc(C#N)cc2)n1	5.3 nM	> 2.16 µM	2.16 µM	409	–	–	–	–	–	–	–	–
18 nM	Cc1ccccc1-c1cc(C)c(Nc2ccnc(Nc3ccc(C#N)cc3)n2)c(C)c1	2.4 nM	> 3.82 µM	3.82 µM	1580	–	–	–	–	–	–	–	–
58 nM	Cc1cc(-c2cccc(C(F)(F)F)c2)cc(C)c1Nc1ccnc(Nc2ccc(C#N)cc2)n1	8.4 nM	> 4.03 µM	4.03 µM	477	–	–	–	–	–	–	–	–
21 nM	COc1ccccc1-c1cc(C)c(Nc2ccnc(Nc3ccc(C#N)cc3)n2)c(C)c1	3 nM	> 0.94 µM	0.94 µM	316	–	–	–	–	–	–	–	–
27 nM	COc1cccc(-c2cc(C)c(Nc3ccnc(Nc4ccc(C#N)cc4)n3)c(C)c2)c1	2.9 nM	> 2.99 µM	2.99 µM	1050	–	–	–	–	–	–	–	–
37 nM	Cc1cc(-c2c(C)cccc2C)cc(C)c1Nc1ccnc(Nc2ccc(C#N)cc2)n1	7.1 nM	> 2.59 µM	2.59 µM	364	–	–	–	–	–	–	–	–
16 nM	Cc1cc(-c2ccccc2)cc(C)c1Nc1ccnc(Nc2ccc(C#N)cc2)n1	2.8 nM	> 4.17 µM	4.17 µM	1520	–	–	–	–	–	–	–	10
12 nM	Cc1cc(-c2cccc(F)c2)cc(C)c1Nc1ccnc(Nc2ccc(C#N)cc2)n1	1.7 nM	> 4.12 µM	4.12 µM	2380	–	–	–	–	–	–	–	–
20 nM	Cc1cc(-c2ccccc2Cl)cc(C)c1Nc1ccnc(Nc2ccc(C#N)cc2)n1	2.6 nM	> 3.99 µM	3.99 µM	1150	–	–	–	–	–	–	–	–
30 nM	Cc1cccc(-c2cc(C)c(Nc3ccnc(Nc4ccc(C#N)cc4)n3)c(C)c2)c1	5.9 nM	> 3.67 µM	3.67 µM	622	–	–	–	–	–	–	–	–
46 nM	Cc1cc(-c2ccccc2C(F)(F)F)cc(C)c1Nc1ccnc(Nc2ccc(C#N)cc2)n1	6.9 nM	> 4.21 µM	4.21 µM	606	–	–	–	–	–	–	–	–
19 nM	Cc1ccc(-c2cc(C)c(Nc3ccnc(Nc4ccc(C#N)cc4)n3)c(C)c2)cc1	3.6 nM	> 5.57 µM	5.57 µM	1540	–	–	–	–	–	–	–	–
26 nM	Cc1cc(-c2ccc(Cl)cc2)cc(C)c1Nc1ccnc(Nc2ccc(C#N)cc2)n1	3.7 nM	> 4.19 µM	4.19 µM	1130	–	–	–	–	–	–	–	–
27 nM	COc1ccc(-c2cc(C)c(Nc3ccnc(Nc4ccc(C#N)cc4)n3)c(C)c2)cc1	2.4 nM	> 2.89 µM	2.89 µM	1200	–	–	–	–	–	–	–	–
116 nM	Cc1cc(C)cc(-c2cc(C)c(Nc3ccnc(Nc4ccc(C#N)cc4)n3)c(C)c2)c1	23 nM	> 4.14 µM	4.14 µM	177	–	–	–	–	–	–	–	–
67 nM	Cc1cc(-c2ccc(C(F)(F)F)cc2)cc(C)c1Nc1ccnc(Nc2ccc(C#N)cc2)n1	10 nM	> 4.16 µM	4.16 µM	418	–	–	–	–	–	–	–	–
52 nM	Cc1cc(-c2cc(F)cc(F)c2)cc(C)c1Nc1ccnc(Nc2ccc(C#N)cc2)n1	33 nM	> 3.91 µM	3.91 µM	120	–	–	–	–	–	–	–	–
46 nM	Cc1cc(-c2cc(Cl)cc(Cl)c2)cc(C)c1Nc1ccnc(Nc2ccc(C#N)cc2)n1	34 nM	> 4.29 µM	4.29 µM	125	–	–	–	–	–	–	–	–
–	O=C1Nc2ccc(Cl)cc2[C@@](C#CC2CC2)(C(F)(F)F)O1 [EFAVIRENZ]	0.43 nM	–	> 2 µM	–	1 nM	19 nM	1.5 nM	59 nM	1.6 nM	40 nM	50 nM	–
–	Cc1cc(C#N)cc(C)c1Oc1nc(Nc2ccc(C#N)cc2)nc(N)c1Br [ETRAVIRINE]	1.5 nM	–	> 2 µM	> 1320	2.7 nM	1.5 nM	8.1 nM	7.9 nM	7.3 nM	10 nM	7 nM	–
–	Cc1ccnc2c1NC(=O)c1cccnc1N2C1CC1 [NEVIRAPINE]	24 nM	–	> 4 µM	–	400 nM	1850 nM	> 4000 nM	> 4000 nM	58 nM	> 4000 nM	> 4000 nM	–
–	Cc1cn([C@H]2C[C@H](N=[N+]=[N-])[C@@H](CO)O2)c(=O)[nH]c1=O [ZIDOVUDINE]	2.1 nM	–	> 2 µM	> 971	1.3 nM	1.9 nM	1.7 nM	1.6 nM	2.2 nM	1.5 nM	1 nM	–

SMILES	IC50 [5]	EC50 [1]	EC50 [2]	CC50 at 96 h [3]	selectivity ratio [4]	EC50 [6]	EC50 [7]	EC50 [8]	EC50 [9]	EC50 [10]	EC50 [11]	EC50 [12]	Ratio EC50 [13]
Cc1cc(-c2ccccc2F)cc(C)c1Nc1ccnc(Nc2ccc(C#N)cc2)n1	9 nM	1.4 nM	> 2.12 µM	2.12 µM	1540	12 nM	3.2 nM	8 nM	130 nM	7.8 nM	230 nM	≥ 390 nM	–
Cc1cc(-c2cccc(C#N)c2)cc(C)c1Nc1ccnc(Nc2ccc(C#N)cc2)n1	11 nM	1.5 nM	> 0.92 µM	0.92 µM	601	17 nM	2.3 nM	11 nM	> 920 nM	8.1 nM	270 nM	> 920 nM	–
Cc1cc(-c2ccc(C#N)cc2)cc(C)c1Nc1ccnc(Nc2ccc(C#N)cc2)n1	14 nM	1 nM	> 2.08 µM	–	2060	1.3 nM	0.84 nM	1.5 nM	11 nM	2 nM	10 nM	≥ 110 nM	–
Cc1cc(-c2ccc(F)cc2)cc(C)c1Nc1ccnc(Nc2ccc(C#N)cc2)n1	17 nM	1.4 nM	> 3.99 µM	4.17 µM	2950	10 nM	2.3 nM	8.3 nM	160 nM	8.1 nM	190 nM	320 nM	–

— ChEMBL document CHEMBL4145492, “Discovery of biphenyl-substituted diarylpyrimidines as non-nucleoside reverse transcriptase inhibitors with high potency against wild-type and mutant HIV-1” (Eur J Med Chem, 2018)
